ChEMBL document CHEMBL6071172, “Addressing the Intracellular Vestibule of the Plasmodial Lactate Transporter PfFNT by p-Substituted Inhibitors Amplifies In Vitro Activity” (J Med Chem, 2024)
One block for each compound: values may come before it. Calls of active or inactive are those of the source. The calls are words filed in the database; no cut-off is given here.

Columns and labels:
[1] = test system: Plasmodium falciparum; assay: Antiplasmodial activity against Plasmodium falciparum 3D7 infected in erythrocytes incubated for 48 hrs with media replenishment with compound after 24 hrs by LSR II FACS analysis; type: functional, organism-based; details: 3D7, Erythrocyte
[2] = test system: Plasmodium berghei; assay: Antiplasmodial activity against Plasmodium berghei ANKA infected in malarial mouse model assessed as elimination of parasitemia at 3 to 30 mg/kg/day, po administered for 4 days by flow cytometric analysis relative to control; type: functional; details: dose 3-30 mg/kg/day, time 4 day
[3] = Metabolic stability in pooled human liver microsomes assessed as intrinsic clearance at 1 uM by LC-MS/MS analysis; type: ADME, Microsome; details: read-out: CLH
[4] = Binding affinity to C-terminal GFP tagged Plasmodium falciparum FNT extracted from HEK293 cell membrane assessed as inhibition constant measured 10 times for 5 sec in presence of BH267.meta-DY647 tracer by fluorescence cross-correlation spectroscopic analysis; type: cell membranes
[5] = Inhibition of Plasmodium falciparum FNT extracted from Saccharomyces cerevisiae W303-1A jen1 delta ady2 delta assessed as reduction in [1-14C]-L-lactate uptake preincubated for 20 mins followed by substrate addition by TriCrab liquid scintillation counter
[6] = test system: Plasmodium falciparum; assay: Antiplasmodial activity against Plasmodium falciparum 3D7 infected in erythrocytes assessed as inhibition of parasite growth at 50 nM incubated for 48 hrs with media replenishment with compound after 24 hrs by LSR II FACS analysis relative to control; type: functional; details: 3D7, Erythrocyte
[7] = test system: HEK293; assay: Cytotoxicity against HEK293 cells assessed as change in ATP level upto 100 uM by CellTiter-Glo assay; type: toxicity, cell-based; details: human, hek293, 100 µM
[8] = test system: HEK293; assay: Cytotoxicity against HEK293 cells assessed as change in redox capability of cytosol upto 100 uM by resazurin dye based fluorescence microplate reader; type: toxicity, cell-based; details: human
[9] = test system: HepG2; assay: Cytotoxicity against human HepG2 cells assessed as change in ATP level upto 100 uM by CellTiter-Glo assay; type: toxicity, cell-based; details: hepg2, 100 µM
[10] = test system: HEK293; assay: Cytotoxicity against HEK293 cells assessed as reduction in nuclei count at >10 uM by Hoechst 33342 staining based microscopic analysis; type: toxicity, cell-based; details: human, hek293, 10 µM
[11] = test system: HepG2; assay: Cytotoxicity against human HepG2 cells assessed as change in redox capability of cytosol upto 100 uM by CellTiter-Glo assay; type: toxicity, cell-based
[12] = test system: HepG2; assay: Cytotoxicity against human HepG2 cells assessed as reduction in nuclei count at >10 uM by Hoechst 33342 staining based microscopic analysis; type: toxicity, cell-based; details: hepg2, 10 µM
[13] = Dissociation constant, pKa of compound; type: physicochemical
[14] = test system: Plasmodium falciparum; assay: Antiplasmodial activity against Plasmodium falciparum 3D7 infected in SCID mouse model assessed as decrease in parasite load at 150 mg/kg/day, po administered for 4 days; type: functional, organism-based; details: time 4.0 day
[15] = Drug concentration in blood of SCID mouse model infected with plasmodium falciparum 3D7 at 50 mg/kg/day, po administered for 4 days; type: ADME, organism-based; details: time 4 day, read-out: Ct
[16] = Half-life in SCID mouse model infected with plasmodium falciparum 3D7 at 50 mg/kg/day, po administered for 4 days; type: ADME, organism-based; details: in vivo, time 4 day

EC50 [1]: < 0.1 µM
Structure (SMILES): O=C(/C=C(\O)C(F)(F)C(F)(F)F)c1ccc(NCc2ccccc2)nc1

CLint scaled at 1 µM [3]: 3.98 mL/min/kg
Structure (SMILES): O=C(/C=C(\O)C(F)(F)C(F)(F)F)c1cccnc1
Activity [2]: >99.7%

Structure (SMILES): COc1ccc(C(=O)/C=C(\O)C(F)(F)C(F)(F)F)c(O)c1
Ki [4]: 0.083 µM | IC50 [5]: 0.17 µM | inhibition at 0.05 µM [6]: < 10%

EC50 [1]: < 0.1 µM | CLint scaled at 1 µM [3]: 10.6 mL/min/kg
Structure (SMILES): CC(=O)Nc1ccc(C(=O)/C=C(\O)C(F)(F)C(F)(F)F)cn1
Activity [7]: Non-Toxic | Activity [8]: Non-Toxic | Activity [9]: Non-Toxic | Activity [10]: Non-Toxic | Activity [11]: Non-Toxic | Activity [12]: Non-Toxic

pKa [13]: 10
Structure (SMILES): FC(F)(F)C(F)(F)c1cc(-c2cccnc2)n[nH]1

concentration at 96 h [15]: ~2000 ng/mL | half-life [16]: 2 h | CLint scaled at 1 µM [3]: 462 mL/min/kg
Structure (SMILES): CCCNc1ccc(C(=O)/C=C(\O)C(F)(F)C(F)(F)F)cn1
Activity [7]: Non-Toxic | Activity [8]: Non-Toxic | Activity [9]: Non-Toxic | Activity [10]: Non-Toxic | Activity [11]: Non-Toxic | Activity [12]: Non-Toxic | Activity [14]: Active

pKa [13]: 8
Structure (SMILES): FC(F)(F)C(F)(F)c1nc(-c2cccnc2)n[nH]1
